This passage reports EC50 results from BindingDB's records for doi:10.7270/Q2251GJ9 (The Scripps Research Institute Molecular Screening Center, 2007).

Usually EC50 stands for the concentration that produces a half-maximal response. A low value points to greater potency.

The structures appear in SMILES notation.

In the first assay the target is Sphingosine 1-phosphate receptor 1 (Homo sapiens, UniProt P21453). The experiment in a line: direct activation of human S1P1 – cell-based, agonist mode, 60K MLSMR set, dose response (AID 468).
Chain of Sphingosine 1-phosphate receptor 1 (P21453 whole entry): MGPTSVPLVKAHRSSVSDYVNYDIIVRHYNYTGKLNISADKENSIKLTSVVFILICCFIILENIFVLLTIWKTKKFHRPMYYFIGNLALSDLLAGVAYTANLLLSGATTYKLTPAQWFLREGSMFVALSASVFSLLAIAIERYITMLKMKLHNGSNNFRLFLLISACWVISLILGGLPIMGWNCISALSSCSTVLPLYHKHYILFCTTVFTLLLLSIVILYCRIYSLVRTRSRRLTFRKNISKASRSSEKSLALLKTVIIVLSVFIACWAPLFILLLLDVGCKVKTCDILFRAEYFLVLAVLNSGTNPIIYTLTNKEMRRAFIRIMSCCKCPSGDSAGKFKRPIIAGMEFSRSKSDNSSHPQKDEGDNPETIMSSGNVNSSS
Conditions: not given
As to `c1ccc2c(c1)oc1c(N3CCN(Cc4ccc5c(c4)OCO5)CC3)ncnc12`, a half-maximal effect (EC50) was put at 6.14 µM. This counts as single-digit micromolar.
Still for that read-out and setting: with `COC(=O)C1=CN(CCCN2CCCC2=O)C=C(C(=O)OC)C1c1ccccc1C(F)(F)F` the figure was > 95 µM; with `CCC(NC(=O)Nc1nnc(C(F)(F)F)s1)(C(F)(F)F)C(F)(F)F`, > 95 µM.
Compound `Cn1ncnc2c(=O)n(C)c(=O)nc1-2` showed an EC50 of 1.4 µM.
Consider `Oc1ccc(-c2nc(-c3ccc(O)c(O)c3)cs2)cc1`, for which the EC50 stood at 12 µM. This EC50 is about 8.6-fold higher than that of the compound before.
`CCC1CCCCN1C(=O)CSc1nnc(-c2c[nH]c3ccccc23)o1` (configuration not stated) showed an EC50 of 5.9 µM.
Compound `O=C(CSc1nnc(-c2c[nH]c3ccccc23)o1)N1c2ccccc2CCc2ccccc21` gave an EC50 of 7.07 µM.
The same measure, in the same setting: with `O=C(Nc1ccc(N2CCCCC2)c(Cl)c1)c1nnc[nH]1` the figure was 0.857 µM.
On the same count and under the same terms, with `COc1ccc2[nH]c(=O)c3c(c2c1)OC(C)(C)C=C3` the figure was 4.51 µM.
Turning to `O=C(CSc1nnc(-c2c[nH]c3ccccc23)o1)N(Cc1ccccc1)c1ccc(F)cc1`, the EC50 amounted to 1.02 µM.
The same measure, in the same setting: with `Oc1c(Cl)cc(Cl)cc1Sc1cc(Cl)cc(Cl)c1O` the figure was 1.02 µM.
On the same count and under the same terms, the figure for `Cc1ccc2[nH]c3c(N4CCN(Cc5ccc6c(c5)OCO6)CC4)ncnc3c2c1` is > 30 µM; for `Fc1ccc2[nH]c3c(N4CCN(c5ccccc5)CC4)ncnc3c2c1` it is > 3 µM.
Still for that read-out and setting: with `CC(C)OCCCNc1ncnc2c1[nH]c1ccc(F)cc12` the figure was 4.41 µM.
The compound `c1ccc(CSc2nnc(-c3c[nH]c4ccccc34)o2)cc1` displayed an EC50 of 1.95 µM.
`O=C(Cc1c[nH]c2ccccc12)N1CCc2ccccc21` returned an EC50 of 9.43 µM. This EC50 is about 4.8-fold higher than that of the compound before.
Same read-out and setting: with `Cc1cc(C(=O)CSc2nnc(-c3ccccc3)n2-c2ccccc2)c(C)n1-c1nnc[nH]1` the figure was 5.27 µM.
In the case of `CN1/C(=C/C(=O)c2nc(S(C)(=O)=O)ncc2Cl)C(C)(C)c2ccccc21`, the EC50 amounted to 8.79 µM.
Same read-out and setting: with `CCCCOC(=O)c1[nH]c2c(c1C)C(=O)CC(c1cc(OC)c(OC)c(OC)c1)C2` (configuration not stated) the figure was 4.19 µM; with `CCc1ccc(N(CC)c2ncnc3nc[nH]c23)cc1`, 6.03 µM.
Still for that read-out and setting: with `CCOC(=O)/C=C/S(=O)(=O)c1ccc(NC(C)=O)cc1` the figure was > 3 µM; with `Cc1ccc(-c2n[nH]c(=S)n2C)cc1`, > 95 µM; with `Clc1ccc(NCn2cncn2)nc1`, > 95 µM.
Still for that read-out and setting: with `CCc1oc2ccccc2c1C(=O)c1cc(Br)c(O)c(Br)c1` the figure was 5.94 µM; with `CC1=NC(=O)NC(c2ccc(Cl)cc2)C1C(=O)OCc1ccc2c(c1)OCO2` (configuration not stated) [1,3-benzodioxol-5-ylmethyl 4-(4-chlorophenyl)-6-methyl-2-oxidanylidene-3,4-dihydro-1H-pyrimidine-5-carboxylate], > 0.03 µM.
As for `CC1=NC(=O)NC(c2ccc(F)cc2)C1C(=O)OCc1ccc2c(c1)OCO2` (configuration not stated) [1,3-benzodioxol-5-ylmethyl 4-(4-fluorophenyl)-6-methyl-2-oxidanylidene-3,4-dihydro-1H-pyrimidine-5-carboxylate], the EC50 came out at 0.437 µM.
`CC1=NC(=O)NC(c2ccccc2)C1C(=O)OCc1ccc2c(c1)OCO2` (configuration not stated) [1,3-benzodioxol-5-ylmethyl 6-methyl-2-oxidanylidene-4-phenyl-3,4-dihydro-1H-pyrimidine-5-carboxylate]: the EC50 was 1.84 µM.
Compound `O=C(Nc1ccc(OC(F)F)c(Cl)c1)Nc1ccc2c(c1)OCO2` [1-(1,3-benzodioxol-5-yl)-3-[3-chloro-4-(difluoromethoxy)phenyl]urea] showed an EC50 of 7.77 µM.

The same assay, now with this note: inactive by the depositor's call.
Compound `CC1=CC(C)(C)Nc2ccc(OC(=O)c3ccco3)cc21` had an EC50 of 13.3 µM.
Still for that read-out and setting: with `O=S1(=O)C=C(Sc2nnc(-c3ccccc3)o2)c2ccccc21` the figure was 20.6 µM.
The same measure, in the same setting: with `Cc1n[nH]c(C)c1N1C(=O)c2cccc3c(N4CCCCCC4)ccc(c23)C1=O` the figure was 13.8 µM.
The same measure, in the same setting: with `CN1c2ccccc2C(C)(C)C12C=Cc1cc(O)ccc1O2` (configuration not stated) [1',3',3'-trimethyl-6-spiro[1-benzopyran-2,2'-indole]ol] the figure was 13.1 µM.
